In patent US20140154315A1, “Hydrophobic Preparations” (VAXCINE LTD., priority 2011, published 2014):

Test system: collagen-induced arthritis (CIA) in DBA-1 mice
Test: Oral collagen II preparation in mouse collagen-induced arthritis model, Example 10
Type: in vivo
Settings: 20 ug dose, oral gavage 4 times before CIA induction; FIGS. 1 and 2
Experimental: • 1. Ten-twelve week old male DBA-1 mice were weighed and divided into 3 groups (n=8/group) as outlined below. All groups were treated orally (by gavage) 4 times (days −10, −7, −5 & −3) prior to induction of collagen-induced arthritis (CIA) by injection of 100 ug collagen in Complete Freunds Adjuvant at the base of the tail. • 2. Arthritis was induced in all animals on day 0, followed by a boost on day 21, and incidence and severity assessed and scored on days 5, 7, 9, 12, 14, 16, 19 and 21 after the boost. Three treatment groups with 8 animals per group were used as outlined below: • (i). CIA+gavage with oil alone • (ii). CIA+gavage with oil containing bovine collagen II (10 μg/dose) • (iii). CIA+gavage with bovine collagen II ([…])
Clinical scores of arthritis incidence (% of animals in each group affected with arthritis of any severity in any number of joints) and arthritis severity (the severity of disease in each individual mouse) was performed after CIA induction for the duration of the experiment. A standard arthritis scoring system was used as outlined below. Each paw is evaluated for swelling and deformity, scored and a total calculated for each animal.
Score 0: No arthritis Score 1:1-2 toes affected only Score 2: 3 or >toes and/or swelling of the paw (metacarpus/metatarsus) Score 3: swelling of the carpus/tarsus Score 4: deformity with ankylosis of the carpus/tarsus • 3. […]

In the case of “collagen alone: bovine collagen II given by gavage without oil formulation”, the “number of animals suffering from arthritis (incidence)” value is reported as “reduction in the number of animals suffering from arthritis”.
